{
  "source": "ChEMBL document CHEMBL4842342",
  "about": "“Amidoxime prodrugs convert to potent cell-active multimodal inhibitors of the dengue virus protease” (Eur J Med Chem, 2021)",
  "key": {"[1]": {"test_system": "dengue virus type 2", "test": "Antiviral activity against Dengue virus 2 infected in human A549 cells assessed as reduction in viral titer production measured after 48 hrs by plaque reduction assay", "type": "functional, organism-based", "settings": "A549, 48 h"}, "[2]": {"molecular_target": "T1, Genome polyprotein (dengue virus type 2, UniProt P29990)", "test": "Inhibition of DENV2 NS2B-NS3 protease"}, "[3]": {"test_system": "dengue virus type 2", "test": "Antiviral activity against Dengue virus 2 measured at 48 hrs post-infection", "type": "functional, organism-based"}, "[4]": {"test_system": "dengue virus type 4", "test": "Antiviral activity against DENV4", "type": "functional, organism-based"}, "[5]": {"test_system": "dengue virus type 2", "test": "Antiviral activity against DENV2 D2Y10 virus infected in human PBMC cells in presence of 4G2 antibody", "type": "functional, organism-based"}, "[6]": {"test_system": "dengue virus type 3", "test": "Antiviral activity against DENV3", "type": "functional, organism-based"}, "[7]": {"test_system": "dengue virus type 2", "test": "Antiviral activity against Dengue virus 2 EDEN2 infected in human Huh-7 cells", "type": "functional, organism-based", "settings": "EDEN2, Huh-7"}, "[8]": {"test": "Cytotoxicity against human Huh-7 cells assessed as reduction in cell viability", "type": "cell-based"}, "[9]": {"molecular_target": "T1, Genome polyprotein", "test": "Inhibition of NS2B-NS3 protease in DENV2 EDEN2 infected in human Huh-7 cells", "type": "cell-based"}, "[10]": {"test_system": "dengue virus type 2", "test": "Antiviral activity against DENV2 infected in human Huh-7 cells assessed as log reduction in intracellular viral RNA synthesis at 10 uM treated at 6 hrs post-viral infection and measured after 12 hrs by real time RT-PCR method", "type": "functional"}, "[11]": {"test_system": "dengue virus type 2", "test": "Antiviral activity against DENV2 infected in human Huh-7 cells assessed as viral infection rate at 10 uM treated at 6 hrs post-viral infection and measured at 30 hrs post-infection by confocal microscopy (reference value: 50 to 60%)", "type": "functional", "settings": "time 24 hrs"}, "[12]": {"test_system": "dengue virus type 1", "test": "Antiviral activity against DENV1", "type": "functional, organism-based"}, "[13]": {"test": "Cytotoxicity against human PBMC assessed as reduction in cell viability"}, "[14]": {"test_system": "dengue virus type 2", "test": "Antiviral activity against DENV2", "type": "functional, organism-based"}, "[15]": {"test_system": "dengue virus type 2", "test": "Antiviral activity against DENV2 infected in human Huh-7 cells assessed as log reduction in extracellular viral RNA synthesis at 10 uM treated at 6 hrs post-viral infection and measured after 48 hrs by real time RT-PCR method", "type": "functional"}, "[16]": {"test_system": "dengue virus type 2", "test": "Antiviral activity against DENV2 infected in human Huh-7 cells assessed as log reduction in intracellular viral RNA synthesis at 10 uM treated at 6 hrs post-viral infection and measured after 38 hrs by real time RT-PCR method", "type": "functional"}, "[17]": {"molecular_target": "Genome polyprotein (dengue virus type 2) (UniProt P29990)", "test": "Inhibition of NS2B-NS3 protease in DENV2 infected in human Huh-7 cells assessed as inhibition of NS3 internal cleavage site at 10 uM treated 6 hrs […] viral infection and measured at 30 hrs post-infection by western blot analysis", "type": "cell-based", "settings": "time 24.0 hrs"}, "[18]": {"test_system": "dengue virus type 2", "test": "Antiviral activity against DENV2 infected in human Huh-7 cells assessed as reduction in intracellular viral RNA synthesis at 10 uM treated at 6 hrs post-viral infection and measured after 48 hrs by real time RT-PCR method", "type": "functional, organism-based"}, "[19]": {"settings": "Dengue virus, 48 h, read-out: EC50"}},
  "note": "Calls of active or inactive are those of the source. The rule behind the calls is not given here.",
  "data": [
    {"smiles": "O=C1C=C/C(=N/Nc2ccc([N+](=O)[O-])cc2Cl)C=C1C(=O)Nc1cccc(Cl)c1", "values": [
      {"measurement": "EC50", "setting": "[1]", "value": 0.81, "unit": "µM"}
    ]},
    {"smiles": "COc1cccc(Cn2c3ccc(-c4cccc(C(=N)N)c4)cc3c3cc(-c4cccc(C(=N)N)c4)ccc32)c1", "values": [
      {"measurement": "IC50", "setting": "[2]; read-out: IC50", "value": 2.71, "unit": "µM"},
      {"measurement": "EC50", "setting": "[3]; [19]", "value": 6.6, "unit": "µM"}
    ]},
    {"smiles": "CCn1c2ccc(-c3cccc(/C(N)=N/O)c3)cc2c2cc(-c3cccc(/C(N)=N/O)c3)ccc21", "values": [
      {"measurement": "EC50", "setting": "[3]; [19]", "value": 1.5, "unit": "µM"}
    ]},
    {"smiles": "N=C(N)c1cccc(-c2ccc3c(c2)c2cc(-c4cccc(C(=N)N)c4)ccc2n3S(=O)(=O)c2ccccc2OC(F)(F)F)c1", "values": [
      {"measurement": "IC50", "setting": "[2]; read-out: IC50", "value": 9.8, "unit": "µM"},
      {"measurement": "EC50", "setting": "[3]; [19]", "value": 5.6, "unit": "µM"}
    ]},
    {"smiles": "N/C(=N\\O)c1cccc(-c2ccc3c(c2)c2cc(-c4cccc(/C(N)=N/O)c4)ccc2n3S(=O)(=O)c2cccc(Br)c2)c1", "values": [
      {"measurement": "EC50", "setting": "[3]; [19]", "value": 2.4, "unit": "µM"}
    ]},
    {"smiles": "N/C(=N\\O)c1cccc(-c2ccc3c(c2)c2cc(-c4cccc(/C(N)=N/O)c4)ccc2n3S(=O)(=O)c2ccccc2C(F)(F)F)c1", "values": [
      {"measurement": "EC50", "setting": "[3]; [19]", "value": 5.3, "unit": "µM"}
    ]},
    {"smiles": "N=C(N)c1cccc(-c2ccc3c(c2)c2cc(-c4cccc(C(=N)N)c4)ccc2n3S(=O)(=O)c2cccc(OC(F)(F)F)c2)c1", "values": [
      {"measurement": "IC50", "setting": "[2]; read-out: IC50", "value": 3.1, "unit": "µM"},
      {"measurement": "EC50", "setting": "[3]; [19]", "value": 8.1, "unit": "µM"}
    ]},
    {"smiles": "N/C(=N\\O)c1cccc(-c2ccc3c(c2)c2cc(-c4cccc(/C(N)=N/O)c4)ccc2n3CC(O)COc2ccccn2)c1", "note": "(stereo not drawn)", "values": [
      {"measurement": "EC50", "setting": "[3]; [19]", "value": 33.9, "unit": "µM"}
    ]},
    {"smiles": "N/C(=N\\O)c1cccc(-c2ccc3c(c2)c2cc(-c4cccc(/C(N)=N/O)c4)ccc2n3S(=O)(=O)c2ccccc2Cl)c1", "values": [
      {"measurement": "EC50", "setting": "[3]; [19]", "value": 2.7, "unit": "µM"}
    ]},
    {"smiles": "CN(C)CCCn1c2ccc(-c3cccc(/C(N)=N/O)c3)cc2c2cc(-c3cccc(/C(N)=N/O)c3)ccc21", "values": [
      {"measurement": "EC50", "setting": "[3]", "value": "Not Active"}
    ]},
    {"smiles": "N/C(=N\\O)c1cccc(-c2ccc3c(c2)c2cc(-c4cccc(/C(N)=N/O)c4)ccc2n3S(=O)(=O)c2ccc(C(F)(F)F)cc2)c1", "values": [
      {"measurement": "EC50", "setting": "[3]; [19]", "value": 4.9, "unit": "µM"}
    ]},
    {"smiles": "COc1ccc(S(=O)(=O)n2c3ccc(-c4cccc(/C(N)=N/O)c4)cc3c3cc(-c4cccc(/C(N)=N/O)c4)ccc32)cc1Br", "values": [
      {"measurement": "EC50", "setting": "[3]; [19]", "value": 2.4, "unit": "µM"}
    ]},
    {"smiles": "Cn1c2ccc(-c3cccc(/C(N)=N/O)c3)cc2c2cc(-c3cccc(/C(N)=N/O)c3)ccc21", "values": [
      {"measurement": "EC50", "setting": "[3]", "value": "Not Active"}
    ]},
    {"smiles": "N/C(=N\\O)c1cccc(-c2ccc3c(c2)c2cc(-c4cccc(/C(N)=N/O)c4)ccc2n3S(=O)(=O)c2cccc3cccnc23)c1", "values": [
      {"measurement": "EC50", "setting": "[3]; [19]", "value": 8.5, "unit": "µM"}
    ]},
    {"smiles": "N/C(=N\\O)c1cccc(-c2ccc3c(c2)c2cc(-c4cccc(/C(N)=N/O)c4)ccc2n3S(=O)(=O)c2ccccc2Br)c1", "values": [
      {"measurement": "IC50", "setting": "[2]", "value": "Not Active"},
      {"measurement": "EC50", "setting": "[3]; [19]", "value": 7.6, "unit": "µM"}
    ]},
    {"smiles": "COc1ccc(S(=O)(=O)n2c3ccc(-c4cccc(/C(N)=N/O)c4)cc3c3cc(-c4cccc(/C(N)=N/O)c4)ccc32)cc1OC", "values": [
      {"measurement": "EC50", "setting": "[3]; [19]", "value": 5.7, "unit": "µM"}
    ]},
    {"smiles": "N/C(=N\\O)c1cccc(-c2ccc3c(c2)c2cc(-c4cccc(/C(N)=N/O)c4)ccc2n3S(=O)(=O)c2ccccc2OC(F)(F)F)c1", "values": [
      {"measurement": "IC50", "setting": "[2]", "value": "Not Active"},
      {"measurement": "EC50", "setting": "[3]; [19]", "value": 1.9, "unit": "µM"}
    ]},
    {"smiles": "Cc1ccccc1S(=O)(=O)n1c2ccc(-c3cccc(/C(N)=N/O)c3)cc2c2cc(-c3cccc(/C(N)=N/O)c3)ccc21", "values": [
      {"measurement": "EC50", "setting": "[3]; [19]", "value": 8.6, "unit": "µM"}
    ]},
    {"smiles": "N/C(=N\\O)c1cccc(-c2ccc3c(c2)c2cc(-c4cccc(/C(N)=N/O)c4)ccc2n3Cc2cccc(Br)c2)c1", "values": [
      {"measurement": "EC50", "setting": "[4]", "value": 1.7, "unit": "µM"},
      {"measurement": "EC50", "setting": "[5]", "value": 1.66, "unit": "µM"},
      {"measurement": "EC50", "setting": "[6]", "value": 5.1, "unit": "µM"},
      {"measurement": "EC50", "setting": "[7]", "value": 1.1, "unit": "µM"},
      {"measurement": "CC50", "setting": "[8]", "value": "> 100", "unit": "µM"},
      {"measurement": "IC50", "setting": "[9]", "value": 18, "unit": "µM"},
      {"measurement": "log(activity)", "setting": "[10]", "value": 2},
      {"measurement": "Activity", "setting": "[11]", "value": 10, "unit": "%"},
      {"measurement": "EC50", "setting": "[12]", "value": 5.9, "unit": "µM"},
      {"measurement": "CC50", "setting": "[13]", "value": "> 100", "unit": "µM"},
      {"measurement": "EC50", "setting": "[14]", "value": 1.4, "unit": "µM"},
      {"measurement": "log(activity)", "setting": "[15]", "value": 3},
      {"measurement": "log(activity)", "setting": "[16]", "value": 2},
      {"measurement": "inhibition", "setting": "[17]", "value": "Active"},
      {"measurement": "EC50", "setting": "[3]; [19]", "value": 1.1, "unit": "µM"},
      {"measurement": "Activity", "setting": "[18]", "value": "inactive"}
    ]},
    {"smiles": "COc1ccc(S(=O)(=O)n2c3ccc(-c4cccc(/C(N)=N/O)c4)cc3c3cc(-c4cccc(/C(N)=N/O)c4)ccc32)cc1F", "values": [
      {"measurement": "EC50", "setting": "[3]; [19]", "value": 2.7, "unit": "µM"}
    ]},
    {"smiles": "N/C(=N\\O)c1cccc(-c2ccc3c(c2)c2cc(-c4cccc(/C(N)=N/O)c4)ccc2n3CC(O)CS(=O)(=O)c2cccc(F)c2)c1", "note": "(stereo not drawn)", "values": [
      {"measurement": "EC50", "setting": "[3]; [19]", "value": 8.7, "unit": "µM"}
    ]},
    {"smiles": "N=C(N)c1cccc(-c2ccc3c(c2)c2cc(-c4cccc(C(=N)N)c4)ccc2n3Cc2cccc(Br)c2)c1", "values": [
      {"measurement": "EC50", "setting": "[5]", "value": 48.1, "unit": "µM"},
      {"measurement": "EC50", "setting": "[7]", "value": 16.4, "unit": "µM"},
      {"measurement": "CC50", "setting": "[8]", "value": 100, "unit": "µM"},
      {"measurement": "CC50", "setting": "[13]", "value": "> 100", "unit": "µM"}
    ]},
    {"smiles": "COc1ccc(F)cc1S(=O)(=O)n1c2ccc(-c3cccc(/C(N)=N/O)c3)cc2c2cc(-c3cccc(/C(N)=N/O)c3)ccc21", "values": [
      {"measurement": "EC50", "setting": "[3]; [19]", "value": 2.8, "unit": "µM"}
    ]},
    {"smiles": "N/C(=N\\O)c1cccc(-c2ccc3c(c2)c2cc(-c4cccc(/C(N)=N/O)c4)ccc2n3S(=O)(=O)c2ccc(Br)cc2)c1", "values": [
      {"measurement": "EC50", "setting": "[3]; [19]", "value": 5.4, "unit": "µM"}
    ]},
    {"smiles": "N/C(=N\\O)c1cccc(-c2ccc3c(c2)c2cc(-c4cccc(/C(N)=N/O)c4)ccc2n3Cc2ccc(F)cc2)c1", "values": [
      {"measurement": "EC50", "setting": "[3]; [19]", "value": 8.1, "unit": "µM"}
    ]}
  ]
}
